Melting point data for 88 compounds are collected here from a melting point compilation (Tetko et al.; mined from patent text by program, amines drawn as free bases though some values may be those of a salt).

Usually melting point stands for the temperature of the solid-liquid transition.

`CC(C)[Si](C(C)C)(C(C)C)n1cc(SC(=O)c2ccccc2)c(C(=O)c2ccccc2)c1` registered a melting point of 120 to 122 °C.
The same measure for `O=C(O)Cc1c(-c2ccccc2)[nH]c2nccnc12`: 276 to 277 °C; for `CC(CCCCCCC(=O)O)C1CCC2C3CCC4CC(O)CCC4(C)C3CC(O)C12C` (stereo not drawn): 182 to 185 °C; for `O=C1OCC(CNC2CCCCC2)C1(c1ccccc1)c1ccccc1` (stereo not drawn): 129 to 131 °C.
The same measure for `O=C(NCc1ccccc1)c1ccnc(NC(=O)c2ccc(F)cc2)c1`: 170 to 171 °C; for `Cc1c(CCO)c(=O)oc2c(O)c(O)ccc12`: 221 to 222 °C.
For the compound `O=C(c1ccc(-c2ccccc2)cc1Cl)N1CCCC(Cc2nnn[nH]2)c2ccccc21` (stereo not drawn), the melting point lay within 191 to 194 °C.
The same measure for `CC1(C)OC(=O)Nc2ccc(-c3cc(Cl)cc(Cl)c3)cc21`: 245 to 246 °C; for `CCOC(=O)Cc1[nH]c(C(=O)c2ccccc2)c(C)c1C(=O)OCC`: 152 to 154 °C.
The same measure for `COc1c2c(c(OC)c(OC)c1OC)CCC(CCI)CC2`: 75 to 82 °C; for `O=C(Oc1ccccc1)OC1c2nccnc2C(=O)N1c1ccc2ccc(Cl)nc2n1` (stereo not drawn): 270 °C.
The same measure for `CCOC(=O)c1c(N(C)C)c2cc(C)ccc2n(Cc2ccccc2)c1=O`: 96 to 103 °C; for `CCn1c(=O)n(O)c(=O)c2cc(F)c(N3CCOCC3)cc21`: 162 to 163 °C.
For the compound `COC(=O)/C=C/c1ccc(-c2ccc(C)cc2)o1`, the melting point was in the range of 113 to 115 °C.
The same measure for `CC1(c2ccc(-c3ccc(Cl)cc3)cc2)CC(=O)NN1` (stereo not drawn): 214 to 215 °C.
The same measure for `Cc1ccc(C)c(NC(=O)N2CCC(c3nc(C4=NOC(c5ccccc5)C4)cs3)CC2)c1` (stereo not drawn): 124 to 127 °C.
In turn, `CCOC(=O)Cc1sc(Sc2cc(C(=O)OCC)nc(SC)n2)nc1C` showed a melting point of 69 to 71 °C.
The same measure for `CCCn1cc(Cc2ccc(C(=O)NS(=O)(=O)c3ccccc3C)cc2OC)c2cc(CC3CCN(C)C3=O)ccc21` (stereo not drawn): 103 to 115 °C.
With `Cc1nnc(-c2ccc3occ(C(=O)O)c3c2)o1`, the melting point lay in the range of 252 to 253 °C.
The same measure for `O=S(=O)(Oc1ccc(Oc2ccc(OS(=O)(=O)c3ccccc3)cc2)cc1)c1ccccc1`: 129 to 130 °C.
The same measure for `COc1ccc2c(c1)CCCC2(N)CO` (stereo not drawn): 89 to 95.6 °C; for `COc1ccc(C2=NN(C3CCN(Cc4ccncc4)CC3)C(=O)[C@@H]3CC=CC[C@H]23)cc1OC`: 196 to 197 °C; for `N#Cc1ccc(NC(=O)NCCCCl)cc1`: 95 to 97 °C.
The same measure for `CN(C(CCn1c(=O)cc(Cl)[nH]c1=O)C(=O)NO)S(=O)(=O)c1ccc(Oc2ccc(Cl)cc2)cc1` (stereo not drawn): 171 to 173 °C; for `COC(=O)C(C)(N)Cc1c[nH]c2ccc(OC(F)F)cc12` (racemic): 140 to 142 °C; for `CN(C)C1CCN2CCc3ccccc3C2(c2ccc(F)cc2)C1` (stereo not drawn): 159 to 167 °C.
In turn, `O=C(Nc1ccc(-n2nc(C(F)(F)F)cc2C(F)(F)F)cc1)c1cc(F)ccc1F` gave a melting point of 168 to 169 °C.
The same measure for `CCC(Oc1cncc(Br)c1)C(=O)O` (stereo not drawn): 100 to 102 °C; for `CCCCOCCOc1ccc(-c2ccc(N3CCC(C)CC3)c(C=C(C)C(=O)O)c2)cc1`: 154 to 155 °C.
As for `O=C(CCN1CCN(c2ccccc2)CC1)Nc1ccc(O)cc1`, the melting point was in the range of 172 to 174 °C.
The same measure for `CCOc1cc(OCC(=O)OCc2ccccc2)cc2c1C(=O)N(COC(=O)c1c(Cl)cccc1Cl)S2(=O)=O`: 157 to 158 °C; for `O=[N+]([O-])c1cccnc1NCc1ccccc1`: 81 to 82 °C; for `CCOC(=O)c1c[nH]c2cc(Cl)c(F)c(NCC=O)c2c1=O`: 213 to 216 °C.
`CNC(=O)c1ccc(F)c2c1CC(N(CCCc1c[nH]c3ccc(F)cc13)CC1CC1)CO2` (stereo not drawn) displayed a melting point of 120 °C.
The same measure for `O=C1Nc2ccc(F)c(F)c2[C@@](C#CC2CC2)(C(F)(F)F)O[C@H]1C1CC1` (relative stereo): 222 °C.
Turning to `CC(O)=C1C(c2ccccc2)=C(c2ccc(S(C)(=O)=O)cc2)C1(Cl)Cl`, the melting point is 194 to 195 °C.
In turn, `CC(C)(C)OC(=O)CC1CCC(=O)Nc2ccccc21` (stereo not drawn) gave a melting point of 101 to 103 °C.
The same measure for `N=c1cc(NCCCCc2c[nH]cn2)ccs1`: 209 to 211 °C; for `CCOP(=O)(OCC)c1c(C)c2c(c(C)c1-c1c(OC)ccc3ccccc13)COC2`: 77.3 to 78.9 °C.
The same measure for `O=c1oc2c(-c3ccccc3)cccc2c(O)c1-c1ccccc1`: 211 °C; for `COc1cc(OC)c(C2=CCCCC2)c(OC)c1`: 127 °C.
The same measure for `CCC(=O)N1CCC(CC(=O)N2CCC([C@H]3c4ncc(Br)cc4CCc4cc(Cl)cc(Br)c43)CC2)CC1`: 124 °C.
Take `CCC(CC)NC1=CC(CC(C(=O)OC)C(=O)OC)(Nc2c(C)cc(C)cc2C)NC(C)=C1` (stereo not drawn): the melting point lay within 136 to 138 °C.
`COc1cc(-c2nn(C)c(C#N)c2C)c(F)cc1Cl` had a melting point of 155 to 156 °C.
The same measure for `CCC(=O)Nc1c(C)c(C)c2c(c1C)C(c1ccc(C(C)C)cc1)CO2` (stereo not drawn): 164 to 165 °C; for `CCOC(=O)CCCOc1ccc2nc3c(cc2c1)CC(=O)N3`: 181 °C.
The same measure for `CCCCN(CC)CC(=O)OC1CC2(C)C(C(C)=O)CCC2C2CCC3CC(O)CCC3(C)C12` (stereo not drawn): 111 to 112 °C; for `Clc1cccc2c1c(Cl)nc1c(-c3nc(C4CC4)no3)ncn12`: 238 to 240 °C.
Consider `Cc1ccc(S(=O)(=O)Oc2ccc(F)cc2Cl)cc1`, for which the melting point lay in the range of 92 to 94 °C.
The same measure for `CCc1cc(Oc2ccc(C(F)(F)F)cc2[N+](=O)[O-])nn1C(=O)NC`: 89 to 91 °C.
Consider `Cn1cc(C(=O)NCc2ccc(Cl)cc2)c(=O)c2cccc(C#CCO)c21`, for which the melting point fell in the range of 228 to 230 °C.
The same measure for `Cc1ccc(C(C)(C)C)c(O)c1C(=O)Oc1ccccc1`: 71 to 72 °C; for `CCCCNC(=O)c1ccc(N2CCN(c3ccncc3)CC2)cc1`: 172 to 174 °C.
The same measure for `CN(C)c1n[nH]c(-c2ccc(F)cc2)c1-c1ccncc1`: 245 to 247 °C; for `COc1ccc(-c2cc(CO)c(=O)n(Cc3ccc(Cl)cc3)c2)cc1`: 128 °C; for `O=C(C=Cc1ccsc1)Nc1nnn[nH]1`: 273 to 274 °C.
Compound `Cn1ccc(=O)c(O)c1CC(O)c1cccnc1` (stereo not drawn) registered a melting point of 215 to 220 °C.
For `O=C1C=C(c2c(Br)cc(Br)cc2Br)C(=O)N1`, the melting point fell in the range of 140 to 143 °C.
As for `CCCCCCCCCCCCCCCCCCON1C(=O)c2ccccc2C1=O`, the melting point lay in the range of 82 to 88 °C.
The same measure for `NC(=O)c1cc(COc2ccc([N+](=O)[O-])cc2)ccn1`: 172 to 174 °C.
In turn, `FC(F)(F)c1ccc(Cl)cc1CN1CCNc2ncc(-c3ccnc(N4CCNCC4)c3)cc21` displayed a melting point of 189 °C.
On to `CN(Cc1ccc(-c2ccc(OCc3nnn[nH]3)c(Br)c2)cc1)C(=O)c1cn(C)c2ccccc12`, for which the melting point was 239 °C.
The same measure for `CC[C@H](COC)n1cc(Br)nc(N2CCc3cc(Cl)cc(Cl)c32)c1=O`: 150 to 152 °C; for `O=C(O)c1cc(Cn2cc(C3c4ccccc4C=Cc4ccccc43)c(=S)[nH]c2=O)ccc1Cc1ccccc1`: 135 °C; for `CC1Sc2c(C(=O)O)c(=O)c3cc(F)c(N4CCC(N(C)C)C4)c(Cl)c3n21` (stereo not drawn): 161 to 162 °C.
Compound `CS(=O)(=S)OCCC(=O)O` (stereo not drawn) displayed a melting point of 44 to 46 °C.
The same measure for `c1ccc(C2SC3(CCNCC3)c3ccccc32)cc1` (stereo not drawn): 142 to 144 °C; for `CCOC(=O)OC(C)OC(=O)c1cc(-c2ccc(F)cc2F)ccc1O` (stereo not drawn): 76 to 78 °C; for `COc1cc([N+](=O)[O-])c2nccc(C)c2c1OCCCCc1ccccc1`: 88 to 89 °C.
The same measure for `Nc1ccccc1Oc1ccc2ncccc2c1`: 115 to 117 °C.
`O=C(NC(=NCCCc1c[nH]cn1)NCCSCc1csc(N=C2NCCCN2)n1)c1ccccc1`: the melting point was 175 to 176 °C.
In turn, `COC(CC1=C(C#N)C(c2cccc3nonc23)c2c[nH]nc2N1)OC` (stereo not drawn) registered a melting point of 115 °C.
The same measure for `O[C@H](COc1cccc2[nH]ccc12)CN1CCC(c2c[nH]c3cc(Cl)ccc23)CC1`: 90 to 95 °C.
On to `CN1C2=C(CSC2)C(=O)Nc2ccccc21`, for which the melting point fell in the range of 196 to 198 °C.
`Nc1cc(N2CC(CCc3ccccc3)OC2=O)ccn1` (stereo not drawn) came in with a melting point of 143 to 144 °C.
For `CC(=O)NCCCc1cccc2c1CC(CCCCc1ccccc1)O2` (stereo not drawn), the melting point lay in the range of 40 to 41 °C.
For the compound `O=C(O)CCC(NC(=O)C=Cc1ccco1)C(=O)O` (stereo not drawn), the melting point lay within 166 to 170 °C.
The same measure for `CCN(CC)CCOc1ccc(Nc2ncc3c(n2)N(C)C(=O)N(C2CCCCC2)C3)cc1`: 90 to 92 °C; for `CCOc1ccc2c(c1)n(CCN(C(C)C)C(C)C)c(=O)n2S(=O)(=O)c1ccc(OC)cc1OC`: 132 °C.
The same measure for `O=C1C=C(Nc2ccc(F)cc2)CCN1`: 195 to 198 °C; for `NS(=O)(=O)c1ccc(NN=Cc2ccc(Cl)cc2Cl)cc1`: 219 to 221 °C.
The same measure for `NS(=O)(=O)c1cc(C(=O)O)cc(N2CCCC2=O)c1Oc1ccccc1`: 282 to 285 °C.
Turning to `CCOC1=CC2=CCC3C4CCC(=O)C4(C)CCC3C2(C)CC1` (stereo not drawn), the melting point was in the range of 146 to 149 °C.
For `COc1cc2c(cc1OC)[C@@H]1C[C@H](NC(=O)OC(C)(C)C)[C@@H](N3C[C@H](CF)CC3=O)CN1CC2`, the melting point was more than 300 °C.
The same measure for `COC(=O)C1=C(C)NC(C)=C(C(=O)OC)C1c1cccc(NC(=S)NNC(=O)CN2CCC(c3cccc(OC)c3)CC2)c1`: 113 to 116 °C; for `NC(=O)Cn1c(Cl)ccc1Cl`: 183 to 184 °C; for `Cc1ncc2c(c1C#N)COc1ccccc1C2=O`: 124 to 126 °C.
`CC(C)(C)OC(=O)NC(Cc1ccccc1)C(=O)Nc1nc(CC(=O)O)cs1` (stereo not drawn): the melting point was 189 to 190 °C.
